Experimental findings from patent US11179399B2, “6-heterocyclyl-4-morpholin-4-ylpyridine-2-one compounds useful for the treatment of cancer and diabetes” (Sprint Bioscience AB, priority 2016, dated 2021) are described below.

Sequence of Vps34 enzyme (Q8NEB9 whole entry): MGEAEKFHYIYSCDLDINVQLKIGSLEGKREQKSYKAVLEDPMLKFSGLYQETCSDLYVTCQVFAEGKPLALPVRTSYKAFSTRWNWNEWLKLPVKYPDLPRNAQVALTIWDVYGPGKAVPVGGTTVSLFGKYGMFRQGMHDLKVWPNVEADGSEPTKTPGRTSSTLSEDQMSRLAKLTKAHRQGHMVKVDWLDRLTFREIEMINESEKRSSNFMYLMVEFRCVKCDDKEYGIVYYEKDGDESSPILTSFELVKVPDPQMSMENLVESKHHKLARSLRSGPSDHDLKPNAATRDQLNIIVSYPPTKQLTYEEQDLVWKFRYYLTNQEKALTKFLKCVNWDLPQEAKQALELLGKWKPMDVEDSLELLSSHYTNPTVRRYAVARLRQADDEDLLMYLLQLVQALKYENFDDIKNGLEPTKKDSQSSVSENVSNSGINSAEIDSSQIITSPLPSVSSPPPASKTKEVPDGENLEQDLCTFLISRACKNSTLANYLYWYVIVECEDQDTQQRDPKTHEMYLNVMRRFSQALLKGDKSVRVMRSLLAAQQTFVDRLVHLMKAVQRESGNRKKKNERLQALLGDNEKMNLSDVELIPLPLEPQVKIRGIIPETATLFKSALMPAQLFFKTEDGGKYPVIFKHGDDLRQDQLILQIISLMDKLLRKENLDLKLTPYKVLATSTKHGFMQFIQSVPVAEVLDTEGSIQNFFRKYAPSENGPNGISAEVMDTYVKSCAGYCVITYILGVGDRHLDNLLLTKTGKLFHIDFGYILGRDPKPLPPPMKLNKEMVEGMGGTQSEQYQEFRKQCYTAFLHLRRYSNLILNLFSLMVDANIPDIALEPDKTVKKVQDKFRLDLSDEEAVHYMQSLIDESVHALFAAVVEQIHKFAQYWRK

The first test has as its target Vps34 enzyme (Homo sapiens (Human), UniProt Q8NEB9). The experiment in a line: Vps34 biochemical assay (Adapta kinase assay). Particulars: 20 μM ATP and 200 μM PI:PS in substrate mix, 1 h at room temperature, read-out: Median IC50 uM Adapta. On the procedure:
Dilution series of compounds of the invention were prepared in DMSO at 100 times the final assay concentration (n1=n0/3 in 10 points). The compounds were further diluted to 4 times the assay concentration in assay buffer (Life technologies buffer Q, PV5125, diluted 5 times supplemented with 2 mM DTT and 2 mM MnCl2). 2.5 μl of the diluted compounds were added to a 384 well assay plate followed by 2.5 μl of 16.5 nM Vps34 enzyme (Life technologies, PV5126). Enzyme and compounds were pre-incubated at rt for 15 min. Then 5 μl of substrate mix containing 20 μM ATP (Life technologies, PV3227) and 200 μM PI:PS substrate (Life technologies, PV5122) in assay buffer was added to the wells containing compound and enzyme. Mixing was performed by pipetting several times. The reaction was incubated at room temperature for 1 h. Then 5 μl stop-detection mix, prepared as described in the Adapta kinase assay kit instructions (Life technologies, PV5099) containing Adapta Eu-anti-ADP antibody (2.3 nM), Alexa Fluor 647 ADP tracer (9 nM) and EDTA (30 mM) in TR-FRET buffer, was added to quench the reaction. Mixing was performed by pipetting several times. The assay plate was then incubated at room temperature for 30 min and read with Artemis micro plate reader. Percent inhibition of the compounds as compared to DMSO treated control samples was calculated. By the use of Dotmatics software compound concentration versus percent inhibition was fitted to generate IC50 values.
With `C[C@@H]1COCCN1c1cc(N2CCCC2c2cccc(F)c2)[nH]c(=O)c1` (mixture of isomers) [Example 13, (R) and (S) 6-[2-(3-fluorophenyl)pyrrolidin-1-yl]-4-[(3R)-3-methylmorpholin-4-yl]-1H-pyridin-2-one], the IC50 (in general, the point on the concentration scale where inhibition reaches its midpoint) came to 0.02 µM. On the same count and under the same terms, the value for `C[C@@H]1COCCN1c1cc(N2CCCC2c2cccc(C(F)(F)F)c2)[nH]c(=O)c1` (mixture of isomers) [Example 16, (R) and (S) 4-[(3R)-3-methylmorpholin-4-yl]-6-[2-[3-(trifluoromethyl)phenyl]pyrrolidin-1-yl]-1H-pyridin-2-one] was 0.04 µM. The same measure, in the same setting: the value for `COc1cccc(C2CCCN2c2cc(N3CCOC[C@H]3C)cc(=O)[nH]2)c1` (mixture of isomers) [Example 17, (R) and (S) 6-[2-(3-methoxyphenyl)pyrrolidin-1-yl]-4-[(3R)-3-methylmorpholin-4-yl]-1H-pyridin-2-one] was 0.01 µM. Still for that read-out and setting: in the case of `C[C@@H]1COCCN1c1cc(N2CCCCC2C(F)(F)F)[nH]c(=O)c1` (mixture of isomers) [Example 25, (R) and (S) 4-[(3R)-3-methylmorpholin-4-yl]-6-[2-(trifluoromethyl)-1-piperidyl]-1H-pyridin-2-one] it was 0.004 µM; in that of `C[C@@H]1COCCN1c1cc(N2CCCC2c2cccc(Cl)c2)[nH]c(=O)c1` (mixture of isomers) [Example 36, (R) and (S) 6-[2-(3-chlorophenyl)pyrrolidin-1-yl]-4-[(3R)-3-methylmorpholin-4-yl]-1H-pyridin-2-one], 0.02 µM. For `Cc1cc(C2CCCN2c2cc(N3CCOC[C@H]3C)cc(=O)[nH]2)nn1C` (single isomer, unassigned) [Example 20_1], the IC50 was found to be 0.06 µM. As for `Cc1cc(C2CCCN2c2cc(N3CCOC[C@H]3C)cc(=O)[nH]2)nn1C` (single isomer, unassigned) [Example 20_2], the half-inhibitory concentration (IC50) is 0.2 µM. The same measure, in the same setting: in the case of `CCn1ccc(C2CCCN2c2cc(N3CCOC[C@H]3C)cc(=O)[nH]2)n1` (single isomer, unassigned) [Example 21_1] it was 0.1 µM; in that of `CCn1ccc(C2CCCN2c2cc(N3CCOC[C@H]3C)cc(=O)[nH]2)n1` (single isomer, unassigned) [Example 21_2], 0.3 µM; in that of `Cc1ccc(C2CCCN2c2cc(N3CCOC[C@H]3C)cc(=O)[nH]2)o1` (single isomer, unassigned) [Example 22_1], 0.04 µM. For `Cc1ccc(C2CCCN2c2cc(N3CCOC[C@H]3C)cc(=O)[nH]2)o1` (single isomer, unassigned) [Example 22_2], the half-maximal inhibitory concentration (IC50) stood at 0.1 µM.

With `CC1COCCN1c1cc(N2CCOC[C@H]2C)cc(=O)[nH]1` (single isomer, unassigned) [Example 24_2], the IC50 stood at 0.2 µM.

With `C[C@@H]1COCCN1c1cc(N2CCCCC2C(F)(F)F)[nH]c(=O)c1` (single isomer, unassigned) [Example 25_2], the half-maximal inhibitory concentration (IC50) was determined as 0.08 µM. Consider `C[C@@H]1COCCN1c1cc(N2CCOCC2c2ccccc2)[nH]c(=O)c1` (single isomer, unassigned) [Example 26_2], for which the half-inhibitory concentration (IC50) turned out to be 0.3 µM. On the same count and under the same terms, in the case of `C[C@@H]1COCCN1c1cc(N2CCCC2c2ccccn2)[nH]c(=O)c1` (single isomer, unassigned) [Example 38_1] it was 0.05 µM; in that of `C[C@@H]1COCCN1c1cc(N2CCCC2c2ccccn2)[nH]c(=O)c1` (single isomer, unassigned) [Example 38_2], 0.2 µM; in that of `Cc1cc(C2CCCN2c2cc(N3CCOC[C@H]3C)cc(=O)[nH]2)no1` (single isomer, unassigned) [Example 40_1], 0.1 µM.

Regarding `C[C@@H]1COCCN1c1cc(N2CCOCC2C(F)(F)F)[nH]c(=O)c1` (single isomer, unassigned) [Example 43_2], the IC50 turned out to be 0.1 µM.

As for `COc1cccc(C2CCCCN2c2cc(N3CCOC[C@H]3C)cc(=O)[nH]2)c1` (single isomer, unassigned) [Example 44_2], the half-maximal inhibitory concentration (IC50) amounted to 0.006 µM. Still for that read-out and setting: the value for `C[C@@H]1COCCN1c1cc(N2CCN(C(=O)C3CCCO3)CC2C(F)(F)F)[nH]c(=O)c1` (single isomer, unassigned) [Example 48_1] was 0.01 µM; that for `C[C@@H]1COCCN1c1cc(N2CCN(C(=O)C3CCCO3)CC2C(F)(F)F)[nH]c(=O)c1` (single isomer, unassigned) [Example 48_2] was 0.02 µM; that for `Cn1c(N2CCCC2c2ccccc2)cc(N2CCOCC2)cc1=O` (stereo not shown) [Example 2, 1-methyl-4-morpholino-6-(2-phenylpyrrolidin-1-yl)pyridin-2-one] was 0.1 µM. Same read-out and setting: in the case of `C[C@@H]1COCCN1c1cc(N2CCCC2C(=O)N(C)C)[nH]c(=O)c1` (stereo partly drawn) [Example 10, N,N-dimethyl-1-[4-[(3R)-3-methylmorpholin-4-yl]-6-oxo-1H-pyridin-2-yl]pyrrolidine-2-carboxamide] it was 0.4 µM; in that of `C[C@@H]1COCCN1c1cc(N2CC[S+]([O-])CC2)[nH]c(=O)c1` [Example 27, 4-[(3R)-3-methylmorpholin-4-yl]-6-(1-oxo-1,4-thiazinan-4-yl)-1H-pyridin-2-one], 0.4 µM; in that of `C[C@@H]1COCCN1c1cc(N2CCS(=O)(=O)CC2)[nH]c(=O)c1` [Example 28, 6-(1,1-dioxo-1,4-thiazinan-4-yl)-4-[(3R)-3-methylmorpholin-4-yl]-1H-pyridin-2-one], 0.4 µM. On the same count and under the same terms, the value for `CC(=O)N1CCN(c2cc(N3CCOC[C@H]3C)cc(=O)[nH]2)CC1` [Example 29, 6-(4-acetylpiperazin-1-yl)-4-[(3R)-3-methylmorpholin-4-yl]-1H-pyridin-2-one] was 0.2 µM.

Regarding `C[C@@H]1COCCN1c1cc(N2CCN(C)CC2c2ccccc2)[nH]c(=O)c1` (stereo partly drawn) [Example 31, 4-[(3R)-3-methylmorpholin-4-yl]-6-(4-methyl-2-phenyl-piperazin-1-yl)-1H-pyridin-2-one], the IC50 came to 0.3 µM. Regarding `C[C@@H]1COCCN1c1cc(N2CCOCC2C2CC2)[nH]c(=O)c1` (stereo partly drawn) [Example 33, 6-(3-cyclopropylmorpholin-4-yl)-4-[(3R)-3-methylmorpholin-4-yl]-1H-pyridin-2-one], the concentration for half-maximal inhibition (IC50) was found to be 0.03 µM.

On to `C[C@@H]1COCCN1c1cc(N2CCC[C@H]2C(F)(F)F)[nH]c(=O)c1` [Example 34, 4-[(3R)-3-methylmorpholin-4-yl]-6-[(2S)-2-(trifluoromethyl)pyrrolidin-1-yl]-1H-pyridin-2-one], for which the IC50 stood at 0.1 µM. On the same count and under the same terms, the value for `C[C@@H]1COCCN1c1cc(N2CCOCC23CCC3)[nH]c(=O)c1` [Example 42, 4-[(3R)-3-methylmorpholin-4-yl]-6-(8-oxa-5-azaspiro[3.5]nonan-5-yl)-1H-pyridin-2-one] was 0.03 µM; that for `C[C@@H]1COCCN1c1cc(N2CCN(C(=O)c3cncc(F)c3)CC2C(F)(F)F)[nH]c(=O)c1` (stereo partly drawn) [Example 46, 6-[4-(5-fluoropyridine-3-carbonyl)-2-(trifluoromethyl)piperazin-1-yl]-4-[(3R)-3-methylmorpholin-4-yl]-1H-pyridin-2-one] was 0.005 µM. On the same count and under the same terms, the value for `C[C@@H]1COCCN1c1cc(N2CCN(C)CC2C(F)(F)F)[nH]c(=O)c1` (stereo partly drawn) [Example 49, 4-[(3R)-3-methylmorpholin-4-yl]-6-[4-methyl-2-(trifluoromethyl)piperazin-1-yl]-1H-pyridin-2-one] was 0.03 µM.

A further test relates to autophagy in HOS cells (GFP-LC3). The experiment in a line: High content screening autophagy assay (GFP-LC3 foci). The format is cell-based, Human. The following applies: Homo sapiens, HOS, 6 h, HOS cells with GFP-LC3, autophagy activated by KU-0063794 500 nM with Bafilomycin A1 5 nM, foci area per cell, read-out: Median IC50 (uM) Cellular assay. On the procedure: Human osteosarcoma cells (HOS) stably expressing a Green Fluorescent Protein (GFP) tagged LC3 (GFP-LC3) were used to determine the inhibitory effect on autophagy of proprietary compounds. For that purpose, autophagy was activated by using the mTOR inhibitor KU-0063794 at 500 nM in the presence of Bafilomycin A1 (Sigma-Aldrich) at 5 nM. Shortly, cells were plated overnight in clear bottom 96-well plates in DMEM-High Modified media (Hi-Clone Cat #SH30285.01). At the start of the experiment, the media was removed and replaced with fresh media containing the mTOR inhibitor, Bafilomycin A1 and the vehicle or a test compound as indicated. After 6 hours the media was removed, cells were washed twice with ice-cold phosphate buffered saline (PBS) and fixed with 4% paraformaldehyde for 20 minutes at room temperature. Then the cells were washed twice with ice-cold PBS before adding Hoechst 33342 at 1 μg/ml in PBS for nuclear staining. After incubation overnight at 4° C., cells were washed once with PBS to remove the excess of dye and 100 μl of PBS was added to each well. Images were acquired at 20× magnification, 6 images per well, using the ImageXpress automated microscope (Molecular Devices Inc.) and analyzed with MetaXpress software to identify LC3-GFP foci. Foci area per cell values were used to generate dose response curves and IC50 values were calculated using the non-linear fitting analysis in GraphPad Prism software.
On to `C[C@@H]1COCCN1c1cc(N2CCCC2c2cccc(F)c2)[nH]c(=O)c1` (mixture of isomers) [Example 13, (R) and (S) 6-[2-(3-fluorophenyl)pyrrolidin-1-yl]-4-[(3R)-3-methylmorpholin-4-yl]-1H-pyridin-2-one], for which the IC50 is 2 µM. In the case of `C[C@@H]1COCCN1c1cc(N2CCCC2c2cccc(C(F)(F)F)c2)[nH]c(=O)c1` (mixture of isomers) [Example 16, (R) and (S) 4-[(3R)-3-methylmorpholin-4-yl]-6-[2-[3-(trifluoromethyl)phenyl]pyrrolidin-1-yl]-1H-pyridin-2-one], the half-maximal inhibitory concentration (IC50) was 0.3 µM.

For `COc1cccc(C2CCCN2c2cc(N3CCOC[C@H]3C)cc(=O)[nH]2)c1` (mixture of isomers) [Example 17, (R) and (S) 6-[2-(3-methoxyphenyl)pyrrolidin-1-yl]-4-[(3R)-3-methylmorpholin-4-yl]-1H-pyridin-2-one], the half-maximal inhibitory concentration (IC50) came out at 0.1 µM.

Take `C[C@@H]1COCCN1c1cc(N2CCCCC2C(F)(F)F)[nH]c(=O)c1` (mixture of isomers) [Example 25, (R) and (S) 4-[(3R)-3-methylmorpholin-4-yl]-6-[2-(trifluoromethyl)-1-piperidyl]-1H-pyridin-2-one]: the 50% inhibitory concentration (IC50) was 0.02 µM. The same measure, in the same setting: in the case of `C[C@@H]1COCCN1c1cc(N2CCCC2c2cccc(Cl)c2)[nH]c(=O)c1` (mixture of isomers) [Example 36, (R) and (S) 6-[2-(3-chlorophenyl)pyrrolidin-1-yl]-4-[(3R)-3-methylmorpholin-4-yl]-1H-pyridin-2-one] it was 0.03 µM.
